Experimental data as given in ChEMBL document CHEMBL6092220 (J Med Chem, 2024).
Activity calls are given as the source filed them. No cut-off for these calls is given here.

What was measured:
[1] = Drug concentration in female CB17 SCID mouse liver at 5 mg/kg, iv measured at 24 hrs by LC-MS/MS analysis; assay type: ADME, organism-based; conditions: read-out: Ct
[2] = biological target: Signal transducer and activator of transcription 1-alpha/beta (Homo sapiens) (UniProt P42224); test: Binding affinity to STAT1 (unknown origin) assessed as maximum inhibition by FP assay relative to control
Cytochrome P450 3A4 [3] = biological target: T1, Cytochrome P450 3A4 (Homo sapiens, UniProt P08684); test: Inhibition of CYP3A4 (unknown origin) using midazolam as substrate; assay type: ADME
Cytochrome P450 1A2 = Cytochrome P450 1A2 (Homo sapiens, UniProt P05177); test: Inhibition of CYP1A2 (unknown origin); assay type: ADME
[4] = biological target: T2, Protein cereblon/Signal transducer and activator of transcription 1-alpha/beta (Homo sapiens, UniProt P42224+Q96SW2); test: PROTAC activity at STAT1/CRBN in human PBMC cells assessed as reduction in STAT1 level incubated for 20 hrs by Western blot analysis; assay type: cell-based
[5] = Stability in rat plasma assessed as parent compound remaining at […]; assay type: ADME, cell-free; conditions: read-out: Stability
[6] = biological target: T3, Protein cereblon/Signal transducer and activator of transcription 3 (Homo sapiens, UniProt P40763+Q96SW2); test: PROTAC activity at his-SUMO-tagged STAT3 (127 to 688 residues)/CRBN in human SU-DHL-1 cells assessed as reduction in STAT3 level at 0.1 to 4000 nM incubated for 20 hrs by Western blot analysis relative to control; assay type: cell-based; conditions: dose 0.1-4000 nM
[7] = Antiproliferative activity against human MOLM16 cells assessed as cell growth inhibition incubated for 4 days by celltiter-glo assay; assay type: functional, cell-based, MOLM-16; conditions: MOLM16, 96 h
[8] = Stability in dog plasma assessed as half life; assay type: ADME, cell-free, Canis lupus familiaris
[9] = biological target: T4, Protein cereblon/Signal transducer and activator of transcription 2 (Homo sapiens) (UniProt Q96SW2+P52630); test: PROTAC activity at STAT2/CRBN in human Pfeiffer cells transfected with STAT3 K658R mutant assessed as reduction in STAT2 level upto 40 uM incubated for 20 hrs by Western blot analysis; assay type: cell-based
[10] = Drug concentration in female CB17 SCID mouse tumor at 5 mg/kg, iv measured at 3 hrs by LC-MS/MS analysis; assay type: ADME, organism-based, Neoplasm; conditions: read-out: Ct
[11] = Drug concentration in female CB17 SCID mouse tumor at 5 mg/kg, iv measured at 72 hrs by LC-MS/MS analysis; assay type: ADME, organism-based, Neoplasm; conditions: read-out: Ct
Cytochrome P450 2C19 = Cytochrome P450 2C19 (Homo sapiens, UniProt P33261); test: Inhibition of CYP2C19 (unknown origin); assay type: ADME
[12] = biological target: T3, Protein cereblon/Signal transducer and activator of transcription 3; test: PROTAC activity at his-SUMO-tagged STAT3 (127 to 688 residues)/CRBN in human PBMC cells assessed as reduction in STAT3 level incubated for 20 hrs by Western blot analysis; assay type: cell-based
[13] = biological target: T3, Protein cereblon/Signal transducer and activator of transcription 3; test: (§1) PROTAC activity at STAT3/CRBN in human Pfeiffer cells transfected with STAT3 K658R mutant assessed as reduction in STAT3 level incubated for 20 hrs by Western blot analysis; assay type: cell-based; conditions: dose <= 40.0 µM
[14] = biological target: Protein cereblon/Signal transducer and activator of transcription 3 (Homo sapiens, UniProt P40763+Q96SW2, K658R); test: as §1; assay type: cell-based
Homo sapiens = species: Homo sapiens; test: Binding affinity to STAT5 (unknown origin) assessed as maximum inhibition by FP assay relative to control
[15] = biological target: Signal transducer and activator of transcription 6 (Homo sapiens) (UniProt P42226); test: Binding affinity to STAT6 (unknown origin) assessed as maximum inhibition by FP assay relative to control
[16] = biological target: T4, Protein cereblon/Signal transducer and activator of transcription 2 (Homo sapiens); test: PROTAC activity at STAT2/CRBN in human SU-DHL-1 cells assessed as reduction in STAT2 level upto 40 uM incubated for 20 hrs by Western blot analysis; assay type: cell-based
[17] = biological target: T5, Protein cereblon/Signal transducer and activator of transcription 6 (Homo sapiens) (UniProt P42226+Q96SW2); test: PROTAC activity at STAT6/CRBN in human SU-DHL-1 cells assessed as reduction in STAT6 level incubated for 20 hrs by Western blot analysis; assay type: cell-based
Cytochrome P450 2C8 = Cytochrome P450 2C8 (Homo sapiens, UniProt P10632); test: Inhibition of CYP2C8 (unknown origin); assay type: ADME
[18] = biological target: Protein cereblon/Signal transducer and activator of transcription 4 (Homo sapiens, UniProt Q96SW2+Q14765); test: PROTAC activity at STAT4/CRBN in human MOLM16 cells assessed as reduction in STAT4 level incubated for 4 hrs by Western blot analysis; assay type: cell-based
[19] = biological target: T2, Protein cereblon/Signal transducer and activator of transcription 1-alpha/beta; test: PROTAC activity at STAT1/CRBN in human SU-DHL-1 cells assessed as reduction in STAT1 level upto 40 uM incubated for 20 hrs by Western blot analysis; assay type: cell-based
[20] = Antitumor activity against human MOLM16 cells xenografted in mouse assessed as tumor regression at 25 mg/kg, iv administered twice daily; assay type: functional, MOLM-16
[21] = Stability in dog plasma assessed as parent compound remaining at […]; assay type: ADME, cell-free, Canis lupus familiaris; conditions: read-out: Stability
[22] = Stability in human plasma assessed as half life; assay type: ADME, cell-free
[23] = biological target: Signal transducer and activator of transcription 3 (Homo sapiens, UniProt P40763); test: Binding affinity to STAT3 (unknown origin) assessed as maximum inhibition by FP assay relative to control
[24] = Drug concentration in female CB17 SCID mouse tumor at 5 mg/kg, iv measured at 24 hrs by LC-MS/MS analysis; assay type: ADME, organism-based, Neoplasm; conditions: read-out: Ct
[25] = Drug concentration in female CB17 SCID mouse liver at 5 mg/kg, iv measured at 1 hr by LC-MS/MS analysis; assay type: ADME, organism-based; conditions: read-out: Ct
[26] = biological target: T3, Protein cereblon/Signal transducer and activator of transcription 3; test: PROTAC activity at his-SUMO-tagged STAT3 (127 to 688 residues)/CRBN in human SU-DHL-1 cells assessed as reduction in STAT3 level upto 40 uM incubated for 20 hrs by Western blot analysis relative to control; assay type: cell-based; design: scale not given: the % may be the effect or the level left
[27] = Stability in Non human primate plasma assessed as parent compound remaining at […]; assay type: ADME, cell-free; conditions: read-out: Stability
[28] = Plasma protein binding in human assessed as unbound fraction at 10 uM; assay type: ADME, cell-free
[29] = Drug concentration in female CB17 SCID mouse liver at 5 mg/kg, iv measured at 48 hrs by LC-MS/MS analysis; assay type: ADME, organism-based; conditions: read-out: Ct
[30] = Stability in human Hepatocyte assessed as half life; assay type: ADME, cell-based; conditions: hepatocytes
Cytochrome P450 3A4 [31] = biological target: T1, Cytochrome P450 3A4; test: Inhibition of CYP3A4 (unknown origin) using testosterone as substrate; assay type: ADME
[32] = biological target: T3, Protein cereblon/Signal transducer and activator of transcription 3; test: PROTAC activity at his-SUMO-tagged STAT3 (127 to 688 residues)/CRBN in human Pfeiffer cells assessed as reduction in STAT3 level upto 40 uM incubated for 4 hrs by Western blot analysis relative to control; assay type: cell-based; design: scale not given: the % may be the effect or the level left
[33] = biological target: T5, Protein cereblon/Signal transducer and activator of transcription 6 (Homo sapiens); test: PROTAC activity at STAT6/CRBN in human MOLM16 cells assessed as reduction in STAT6 level incubated for 4 hrs by Western blot analysis; assay type: cell-based
[34] = Antitumor activity against human MOLM16 cells xenografted in mouse assessed as tumor growth inhibition at 10 mg/kg, iv; assay type: functional, MOLM-16; conditions: read-out: TGI
[35] = Stability in dog Hepatocyte assessed as half life; assay type: ADME, cell-based, Canis lupus familiaris; conditions: hepatocytes

Q: For `COC(=O)N1CC[C@H]2CC[C@@H](C(=O)N[C@@H](CCC(N)=O)C(=O)N[C@@H](Cc3ccc(F)c(F)c3)C(=O)N3CCC(CCC#Cc4cccc5c4CN(C4CCC(=O)NC4=O)C5=O)CC3)N2C(=O)[C@@H](NC(=O)c2cc3cc(C(F)(F)P(=O)(O)O)ccc3s2)C1` (stereo not given in full), which concentration at 24 h [1] is on record?
A: 1250 ng/g

Q: What about the Imax [2] of the same compound?
A: 100%

Q: What about the IC50 (Cytochrome P450 3A4 [3]) of the same compound?
A: > 10000 nM

Q: What about the IC50 (Cytochrome P450 1A2) of the same compound?
A: > 10000 nM

Q: What about the DC50 [4] of the same compound?
A: 1600 nM

Q: And the remaining at 2 h [5]?
A: 94%

Q: And the Emax [6]?
A: > 95%

Q: And the IC50 [7]?
A: 38 nM

Q: What about the t1/2 [8] of the same compound?
A: > 2 h

Q: What about the Activity [9] of the same compound?
A: inactive

Q: What about the concentration at 3 h [10] of the same compound?
A: 2830 ng/g

Q: And the concentration at 72 h [11]?
A: 925 ng/g

Q: And the IC50 (Cytochrome P450 2C19)?
A: > 10000 nM

Q: And the DC50 [12]?
A: 0.1 nM

Q: And the Activity ([12]; dose 0.1-4000 nM)?
A: Dose-dependent-effect

Q: And the Activity [13]?
A: Dose-dependent-effect

Q: And the DC50 [14]?
A: 2.5 nM

Q: What about the Imax (Homo sapiens) of the same compound?
A: 50%

Q: And the Imax [15]?
A: 10%

Q: And the Activity [16]?
A: inactive

Q: What about the Activity [17] of the same compound?
A: Active

Q: And the IC50 (Cytochrome P450 2C8)?
A: > 10000 nM

Q: And the Activity [18]?
A: inactive

Q: What about the Activity [19] of the same compound?
A: inactive

Q: What about the Activity [20] of the same compound?
A: 100%

Q: What about the remaining at 2 h [21] of the same compound?
A: 89%

Q: And the t1/2 [22]?
A: > 2 h

Q: And the Imax [23]?
A: 100%

Q: And the concentration at 24 h [24]?
A: 1800 ng/g

Q: And the concentration at 1 h [25]?
A: 5850 ng/g

Q: And the Activity [26]?
A: > 95%

Q: What about the remaining at 2 h [27] of the same compound?
A: 101%

Q: And the Fu [28]?
A: 0.5%

Q: And the concentration at 48 h [29]?
A: 1130 ng/g

Q: What about the t1/2 [30] of the same compound?
A: > 2 h

Q: What about the IC50 (Cytochrome P450 3A4 [31]) of the same compound?
A: > 10000 nM

Q: What about the Activity [32] of the same compound?
A: > 95%

Q: What about the Activity [33] of the same compound?
A: inactive

Q: And the inhibition in vivo at 10 mg/kg [34]?
A: 54%

Q: What about the t1/2 [35] of the same compound?
A: > 2 h
